The values that follow come from patent publication US10125100B2, “Kinase inhibitors” (Respivert Limited, priority 2014, dated 2018).

The data set deals with Jurkat cells. Nature of the data set: (r) Cell cytotoxicity assay. The class given is cell-based, human. As to conditions: 24 hours. The procedure: 1×10^5 Jurkat cells (immortalised human T lymphocytes) are added to the appropriate number of wells of a 96 well plate in 100 μL of media (RPMI supplemented with 10% foetal bovine serum). 1 μL of DMSO control (final concentration 1.0% v/v) or test compound (final concentration 20, 5 or 1 μg/mL) is added to the wells and incubated at 37° C., 5% CO2. After 24 hours, the plate is centrifuged at 1200 rpm for 3 minutes and the supernatant discarded. Cells are then resuspended in 150 μL (final concentration 7.5 μg/mL) of propidium iodide (PI) in PBS and incubated at 37° C., 5% CO2 for 15 minutes. After 15 minutes, cells are analysed by flow cytometry (BD accuri) using the FL3 window. The % viability is calculated as the % of cells that are PI negative in the test wells normalised to the DMSO control.

In the case of `COc1cc(Nc2cc(Oc3ccc(NC(=O)Nc4cc(C(C)(C)C)cc(NS(C)(=O)=O)c4OC)c4ccccc34)ccn2)ccc1C(=O)NCCN1CCN(C(C)C)CC1` [17(bf), 4-((4-((4-(3-(5-(tert-Butyl)-2-methoxy-3-(methylsulfonamido)phenyl)ureido)naphthalen-1-yl)oxy)pyridin-2-yl)amino)-N-(2-(4-isopropylpiperazin-1-yl)ethyl)-2-methoxybenzamide], the “% Viability at 1 μg/mL” value is recorded as 90.7%, the “% Viability at 5 μg/mL” value is 1.5% and the “% Viability at 20 μg/mL” value is recorded as 0.6%.

For `COc1cc(Nc2cc(Oc3ccc(NC(=O)Nc4cc(C(C)(C)C)cc(NS(C)(=O)=O)c4OC)c4ccccc34)ccn2)ccc1C(=O)NC[C@@H]1O[C@H](CO)[C@@H](O)[C@H](O)[C@H]1O` [17(co), 4-((4-((4-(3-(5-(tert-Butyl)-2-methoxy-3-(methylsulfonamido)phenyl)ureido)naphthalen-1-yl)oxy)pyridin-2-yl)amino)-2-methoxy-N-(((2S,3R,4R,5S,6R)-3,4,5-trihydroxy-6-(hydroxymethyl)tetrahydro-2H-pyran-2-yl)methyl)benzamide], the “% Viability at 1 μg/mL” value stood at 94.5%, the “% Viability at 5 μg/mL” value was 93.3% and the “% Viability at 20 μg/mL” value came out at 92.2%.

Turning to `COc1cc(Nc2cc(Oc3ccc(NC(=O)Nc4cc(C(C)(C)C)cc(NS(C)(=O)=O)c4OC)c4ccccc34)ccn2)ccc1C(=O)NCCN1CCN(C(=O)CC[C@H](N)C(=O)O)CC1` [17(cl), (S)-2-Amino-5-(4-(2-(4-((4-((4-(3-(5-(tert-butyl)-2-methoxy-3-(methylsulfonamido)-phenyl)ureido)naphthalen-1-yl)oxy)pyridin-2-yl)amino)-2-methoxybenzamido)ethyl)piperazin-1-yl)-5-oxopentanoic acid], the “% Viability at 1 μg/mL” value came out at 93.6%, the “% Viability at 5 μg/mL” value is 94.0% and the “% Viability at 20 μg/mL” value amounted to 93.7%.

For `COc1cc(Nc2cc(Oc3ccc(NC(=O)Nc4cc(C(C)(C)C)cc(NS(C)(=O)=O)c4OC)c4ccccc34)ccn2)ccc1S(=O)(=O)N(C)CCN1CCN(C)CC1` [17(bb), 4-((4-((4-(3-(5-(tert-Butyl)-2-methoxy-3-(methylsulfonamido)phenyl)ureido)naphthalen-1-yl)oxy)pyridin-2-yl)amino)-2-methoxy-N-methyl-N-(2-(4-methylpiperazin-1-yl)ethyl)benzenesulfonamide], the “% Viability at 1 μg/mL” value amounted to 90.9%, the “% Viability at 5 μg/mL” value is reported as 19.2% and the “% Viability at 20 μg/mL” value was 0.2%.

Turning to `COc1cc(Nc2nccc(Oc3ccc(NC(=O)Nc4cc(C(C)(C)C)cc(NS(C)(=O)=O)c4OC)c4ccccc34)n2)ccc1C(=O)NCCCN1CCOCC1` [17(ao), 4-((4-((4-(3-(5-(tert-Butyl)-2-methoxy-3-(methylsulfonamido)phenyl)ureido)naphthalen-1-yl)oxy)pyrimidin-2-yl)amino)-2-methoxy-N-(3-morpholinopropyl)benzamide], the “% Viability at 1 μg/mL” value is listed as 89.2%, the “% Viability at 5 μg/mL” value is reported as 16.5% and the “% Viability at 20 μg/mL” value is 1.6%.

With `COc1cc(Nc2nccc(Oc3ccc(NC(=O)Nc4cc(C(C)(C)C)cc(NS(C)(=O)=O)c4OC)c4ccccc34)n2)ccc1C(=O)NCCN1CCN(C)CC1` [17(aq), 4-((4-((4-(3-(5-(tert-Butyl)-2-methoxy-3-(methylsulfonamido)phenyl)ureido)naphthalen-1-yl)oxy)pyrimidin-2-yl)amino)-2-methoxy-N-(2-(4-methylpiperazin-1-yl)ethyl)benzamide], the “% Viability at 1 μg/mL” value is listed as 95.1%, the “% Viability at 5 μg/mL” value worked out at 0.2% and the “% Viability at 20 μg/mL” value is 1.3%.

Regarding `COc1cc(Nc2cc(Oc3ccc(NC(=O)Nc4cc(C(C)(C)C)cc(NS(C)(=O)=O)c4OC)c4ccccc34)ccn2)cc(OC)c1C(=O)NCCCN1CCOCC1` [Example 23, 4-((4-((4-(3-(5-(tert-Butyl)-2-methoxy-3-(methylsulfonamido)phenyl)ureido)naphthalen-1-yl)oxy)pyridin-2-yl)amino)-2,6-dimethoxy-N-(3-morpholinopropyl)benzamide], the “% Viability at 1 μg/mL” value is recorded as 92.4%, the “% Viability at 5 μg/mL” value is reported as 88.9% and the “% Viability at 20 μg/mL” value worked out at 89.8%.

In the case of `COc1cc(Nc2cc(Oc3ccc(NC(=O)Nc4cc(C(C)(C)C)cc(NS(C)(=O)=O)c4OC)c4ccccc34)ccn2)ccc1S(=O)(=O)CCCN1CCN(C)CC1` [17(ch), N-(5-(tert-Butyl)-2-methoxy-3-(3-(4-((2-((3-methoxy-4-((3-(4-methylpiperazin-1-yl)propyl)sulfonyl)phenyl)amino)pyridin-4-yl)oxy)naphthalen-1-yl)ureido)phenyl)methanesulfonamide], the “% Viability at 1 μg/mL” value was found to be 82.0%, the “% Viability at 5 μg/mL” value came out at 10.2% and the “% Viability at 20 μg/mL” value is recorded as 0.7%.

Regarding `COc1cc(Nc2cc(Oc3ccc(NC(=O)Nc4cc(C(C)(C)C)cc(NS(C)(=O)=O)c4OC)c4ccccc34)ccn2)ccc1C(=O)NCCOCCO` [17(bm), 4-((4-((4-(3-(5-(tert-Butyl)-2-methoxy-3-(methylsulfonamido)phenyl)ureido)naphthalen-1-yl)oxy)pyridin-2-yl)amino)-N-(2-(2-hydroxyethoxy)ethyl)-2-methoxybenzamide], the “% Viability at 1 μg/mL” value is 103.6%, the “% Viability at 5 μg/mL” value is 0.2% and the “% Viability at 20 μg/mL” value turned out to be 0.5%.

Turning to `CCC(=O)NS(=O)(=O)c1ccc(Nc2nccc(Oc3ccc(NC(=O)Nc4cc(C(C)(C)C)cc(NS(C)(=O)=O)c4OC)c4ccccc34)n2)cc1OC` [17(bk), N-((4-((4-((4-(3-(5-(tert-Butyl)-2-methoxy-3-(methylsulfonamido)phenyl)ureido)-naphthalen-1-yl)oxy)pyrimidin-2-yl)amino)-2-methoxyphenyl)sulfonyl)propionamide], the “% Viability at 1 μg/mL” value is on record as 93.0%, the “% Viability at 5 μg/mL” value turned out to be 71.8% and the “% Viability at 20 μg/mL” value stood at 65.6%.

As to `COc1c(NC(=O)Nc2ccc(Oc3ccnc(Nc4ccc(P(C)(=O)O)c(N(C)C)c4)c3)c3ccccc23)cc(C(C)(C)C)cc1NS(C)(=O)=O` [Example 68, [4-[[4-[[4-[[5-tert-Butyl-3-(methanesulfonamido)-2-methoxy-phenyl]carbamoylamino]-1-naphthyl]oxy]-2-pyridyl]amino]-2-(dimethylamino)phenyl]-methyl-phosphinic acid], the “% Viability at 1 μg/mL” value turned out to be 95.6%, the “% Viability at 5 μg/mL” value is on record as 92.7% and the “% Viability at 20 μg/mL” value worked out at 90.2%.

As to `COc1cc(Nc2cc(Oc3ccc(NC(=O)Nc4cc(C(C)(C)C)cc(NS(C)(=O)=O)c4OC)c4ccccc34)ccn2)ccc1C(=O)NCC[N+]1([O-])CCOCC1` [Example 33, 4-(2-(4-((4-((4-(3-(5-(tert-Butyl)-2-methoxy-3-(methylsulfonamido)phenyl)ureido)naphthalen-1-yl)oxy)pyridin-2-yl)amino)-2-methoxybenzamido)ethyl)morpholine 4-oxide], the “% Viability at 1 μg/mL” value was 104.1%, the “% Viability at 5 μg/mL” value amounted to 95.5% and the “% Viability at 20 μg/mL” value was 69.3%.
